Source: US9187430B2, “Poly (ADP-ribose) polymerase inhibitor” (CHENGDU DI'AO PHARMACEUTICAL GROUP CO., LTD., priority 2011, dated 2015)
In brackets after ≈: the same amount, converted by molar mass.

system: rat model of focal cerebral ischemia; assay: not given; settings: i.p. 10 mg/kg two hours prior to and two hours after the initiation of ischemia; cited from earlier work

Row | Compound | reduction in infarct volume [%]
1 | O=C1NCCc2c(OCCCCN3CCCCC3)cccc21 [DPQ, 3,4-dihydro-5-[4-(1-piperidinyl)butoxy]-1(2H)-isoquinolinone] | 54

system: triple-negative phenotypic breast cancer cell line MDA-MB-436; assay: Cell proliferation inhibition assay (SRB method); type: cell-based; settings: Homo sapiens, 144 h; BRCA-deficient MDA-MB-436, six days, compound alone
Excerpt: Cell Proliferation Inhibition Assay
This assay was used to study the effect of PARP-1 inhibitor alone for tumor suppression. Breast cancer susceptibility genes BRCA1 and BRCA2 play an important role in homologous recombination DNA repair. BRCA-deficient cells represent homologous recombination repair defect, if PARP-mediated DNA repair is inhibited at the same time, DNA damage in cells may be increased, resulting in chromatin abnormality or even cell death.
BRCA-deficient breast cancer cell line MDA-MB-436 was selected for the assay, PARP inhibitor was used alone to evaluate its damage effect on cells. The inhibition effect of the compound was expressed by IC50.
Breast cancer cell line MDA-MB-436 in good growth condition seeded in 96-well plates (5000 cells/well or 3000 cells/well, respectively), and cultured overnight in an incubator at 37° C., 5% CO2 with saturated humidity. On the next day, samples with a series of concentration gradients were added and cultured for another six days. SRB method was used to detect the samples' inhibition on cell growth and calculate their growth inhibition rate.

Row | Compound | IC50 [µM]
2 | O=C(c1cc(Oc2n[nH]c(=O)c3ccccc23)ccc1F)N1CCN(C(=O)c2ccccc2[N+](=O)[O-])CC1 [Compound 88, 4-(4-fluoro-3-(4-(2-nitrobenzoyl)piperazine-1-carbonyl)phenoxy)-2H-phthalazin-1-one] | 3.28
3 | CCC(CC)C(=O)N1CCN(C(=O)c2cc(Oc3n[nH]c(=O)c4ccccc34)ccc2F)CC1 [Compound 61, 4-(3-(4-(2-ethylbutyryl)piperazine-1-carbonyl)-4-fluorophenoxy)-2H-phthalazin-1-one] | 1.98
4 | C[C@]1(C(=O)N2CCN(C(=O)c3cc(Oc4n[nH]c(=O)c5ccccc45)ccc3F)CC2)CCCN1 [Compound 130, (R)-4-(4-fluoro-3-(4-(2-methylpyrrolidine-2-carbonyl)piperazine-1-carbonyl)phenoxy)-2H-phthalazin-1-one] | 3.85
5 | O=C(c1cc(Oc2n[nH]c(=O)c3ccccc23)ccc1F)N1CCN(C(=O)N2CCCCC2)CC1 [Compound 85, 4-(4-fluoro-3-(4-(piperidine-1-carbonyl)piperazine-1-carbonyl)phenoxy)-2H-phthalazin-1-one] | 3.35
6 | CCC(=O)N1CCN(C(=O)c2cc(Oc3n[nH]c(=O)c4ccccc34)ccc2F)CC1 [Compound 100, 4-(4-fluoro-3-(4-propionylpiperazine-1-carbonyl)phenoxy)2H-phthalazin-1-one] | 4.12
7 | O=C(c1cc(Cc2n[nH]c(=O)c3ccccc23)ccc1F)N1CCN(C(=O)C2CC2)CC1 [AZD-2281, reference compound] | 4.38
8 | O=C(c1cc(Oc2n[nH]c(=O)c3ccccc23)ccc1F)N1CCN(C(=O)C2CCCCC2)CC1 [Compound 99] | 2.63
9 | CN(C)C1(C(=O)N2CCN(C(=O)c3cc(Oc4n[nH]c(=O)c5ccccc45)ccc3F)CC2)CC1 [Compound 124, 4-(3-(4-(1-(dimethylamino)cyclopropanecarbonyl)piperazine-1-carbonyl)-4-fluorophenoxy)2H-phthalazin-1-one] | 3.7
10 | C[C@@H](C(=O)N1CCN(C(=O)c2cc(Oc3n[nH]c(=O)c4ccccc34)ccc2F)CC1)c1ccccc1 [Compound 49, (R)-4-(4-fluoro-3-(4-(2-phenylpropionyl)piperazine-1-carbonyl)phenoxy)-2H-phthalazin-1-one] | 4.21
11 | O=C(c1cc(Oc2n[nH]c(=O)c3ccccc23)ccc1F)N1CCN(C(=O)C2CCC(F)(F)CC2)CC1 [Compound 107, 4-(3-(4-(4,4-difluorocyclohexanecarbonyl)piperazine-1-carbonyl)-4-fluorophenoxy)2H-phthalazin-1-one] | 3.17

system: occlusion of the MCA in mice; assay: not given; settings: intracerebroventricular administration; cited from earlier work

Row | Compound | decrease in infarct volume [%]
12 | NC(=O)c1cccc(N)c1 [Compound 3-AB, 3-aminobenzamide] | 47

system: not listed separately; assay: Solubility test (thermodynamic solubility, HPLC external standard); type: physicochemical; settings: aqueous buffer, thermodynamic from solid; pH=7.4 phosphate buffer, 25° C., shaken 24 hours; read-out: Water Solubility (PH = 7.4)
Protocol: In this test, excess amount of test sample was added into pH=7.4 phosphate buffer. Ultrasonic was performed for 30 min until the drug no longer dissolved. The solution was continuously shaked for 24 hours at a constant temperature of 25° C. to achieve a thermodynamic equilibrium of compound, and then the solution was filtrated to get filtrate. Quantitative analysis of compound in filtrate using external standard method is performed according to “Appendix VD High Performance Liquid Chromatography, Part II of Pharmacopeia 2010,” and the sample thermodynamic solubility in pH=7.4 phosphate buffered solution was determined.
Agilent 1200 LC, Phenomen C18 column (4.6 mm*150 mm, […]), mobile phase: methanol:water (60:40), flow rate: 1 mL/min, column temperature: 25° C., wave length: 230 nm, injection volume: 10 μL
About 30 mg test compound was put in a 10 mL volumetric flask, about 8 mL pH=7.4 phosphate buffer was added and ultrasonic was performed for 30 min, and the solution was shaked for 24 hours in a shaker at a constant temperature of 25° C. The solution was settled for half an hour under 25° C., filtered with […] hydrophilic filter. The filtrate was used as test sample.
Standard compound AZD-2281 was put in a volumetric flask and dissolved in the mobile phase. The solutions were injected to measure the peak area. The retention time of AZD-2281 was about 8.5 min. The peak area was regressed against concentration to get a regression equation y=29.66x+302.82 (r=0.9997), and the linear range is 52.45˜83.92 µg/mL (see FIG. 1).
The test solution was injected for three times according to the above chromatographic conditions. The peak area was measured to calculate the corresponding concentration.
The procedures for testing the solubility of other compounds were similar with compound AZD-2281.

Row | Compound | solubility at 24 h [µg/mL]
13 | CNC1(C(=O)N2CCN(C(=O)c3cc(Oc4n[nH]c(=O)c5ccccc45)ccc3F)CC2)CCC1 [Compound 127, 4-(4-fluoro-3-(4-(1-(methylamino)cyclobutanecarbonyl)piperazine-1-carbonyl)phenoxy)2H-phthalazin-1-one] | 630 (≈ 1310 µM)
14 | NC1(C(=O)N2CCN(C(=O)c3cc(Oc4n[nH]c(=O)c5ccccc45)ccc3F)CC2)CC1 [Compound 125, 4-(3-(4-(1-aminocyclopropanecarbonyl)piperazine-1-carbonyl)-4-fluorophenoxy)2H-phthalazin-1-one] | 671 (≈ 1490 µM)
15 | CC(C)N1CCN(C(=O)c2cc(Oc3n[nH]c(=O)c4ccccc34)ccc2F)CC1 [Compound 79, 4-(4-fluoro-3-(4-isopropyl-1-carbonyl)phenoxy)-2H-phthalazin-1-one] | 650 (≈ 1580 µM)
16 | CCC(=O)N1CCN(C(=O)c2cc(Oc3n[nH]c(=O)c4ccccc34)ccc2F)CC1 [Compound 100, 4-(4-fluoro-3-(4-propionylpiperazine-1-carbonyl)phenoxy)2H-phthalazin-1-one] | 660 (≈ 1560 µM)
17 | O=C(c1cc(Cc2n[nH]c(=O)c3ccccc23)ccc1F)N1CCN(C(=O)C2CC2)CC1 [AZD-2281, reference compound] | 531 (≈ 1220 µM)
18 | CC(C)(C)C(=O)N1CCN(C(=O)c2cc(Oc3n[nH]c(=O)c4ccccc34)ccc2F)CC1 [Compound 55, 4-(4-fluoro-3-(4-pivaloylpiperazine-1-carbonyl)phenoxy)-2H-phthalazin-1-one] | 602 (≈ 1330 µM)
19 | CN(C)C1(C(=O)N2CCN(C(=O)c3cc(Oc4n[nH]c(=O)c5ccccc45)ccc3F)CC2)CC1 [Compound 124, 4-(3-(4-(1-(dimethylamino)cyclopropanecarbonyl)piperazine-1-carbonyl)-4-fluorophenoxy)2H-phthalazin-1-one] | 1440 (≈ 3000 µM)
